# Data published in ChEMBL document CHEMBL1201862, “PubChem BioAssay data set” (2004).
#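 Exposure lasted 48 hours, with cells grown in 96-well plates and compounds tested at five concentrations. Abbreviation: GI50, concentration required for 50% inhibition of growth.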 Active and inactive are the calls of the source. No stated cut-off is given here; in the data, active = GI50 up to about 1.1 µM and inactive = higher.
# What was measured:
# Test in all cases: NCI anticancer screen, dose series, 48 h
# A549 = test system: A549
# UACC-257 = test system: UACC-257
# M19-MEL = test system: M19-MEL
# OVCAR-8 = test system: OVCAR-8
# RXF 393 = test system: RXF 393
# HT-29 = test system: HT-29
# NCI-H460 = test system: NCI-H460
# NCI-H226 = test system: NCI-H226
# U-251 = test system: U-251
# A498 = test system: A498
# UACC-62 = test system: UACC-62
# LOX IMVI = test system: LOX IMVI
# SF-268 = test system: SF-268
# UO-31 = test system: UO-31
# IGROV-1 = test system: IGROV-1
# SF-295 = test system: SF-295
# HOP-18 = test system: HOP-18
# DMS-114 = test system: DMS-114
# SF-539 = test system: SF-539
# HL-60 = test system: HL-60
# K562 = test system: K562
# XF498 = test system: XF498
# TK-10 = test system: TK-10
# Malme-3M = test system: Malme-3M
# SNB-78 = test system: SNB-78
# SK-OV-3 = test system: SK-OV-3
# KM12 = test system: KM12
# CCRF-CEM = test system: CCRF-CEM
# SN12C = test system: SN12C
# OVCAR-3 = test system: OVCAR-3
# NCI-H23 = test system: NCI-H23
# HCT-116 = test system: HCT-116
# DMS-273 = test system: DMS-273
# MOLT-4 = test system: MOLT-4
# ACHN = test system: ACHN
# HCC 2998 = test system: HCC 2998
# SK-MEL-28 = test system: SK-MEL-28
# SK-MEL-5 = test system: SK-MEL-5
# SK-MEL-2 = test system: SK-MEL-2
# M14 = test system: M14
# SNB-19 = test system: SNB-19
# NCI-H522 = test system: NCI-H522
# LXFL 529 = test system: LXFL 529
# HCT-15 = test system: HCT-15
# DLD-1 = test system: DLD-1
# OVCAR-5 = test system: OVCAR-5
# 786-0 = test system: 786-0
# KM-20L2 = test system: KM-20L2
# OVCAR-4 = test system: OVCAR-4
# SNB-75 = test system: SNB-75
# HOP-62 = test system: HOP-62
# SR = test system: SR
# SW-620 = test system: SW-620
# RPMI-8226 = test system: RPMI-8226
# EKVX = test system: EKVX
# HOP-92 = test system: HOP-92
structure (smiles),measurement,setting,value
COc1cc(C2C(Cl)C(=O)N2NC(=O)c2ccccc2O)ccc1O (configuration not stated),GI50,A549,> 100 µM (inactive)
same,GI50,UACC-257,> 100 µM (inactive)
same,GI50,M19-MEL,> 100 µM (inactive)
same,GI50,OVCAR-8,70.8 µM (inactive)
same,GI50,RXF 393,0.0612 µM (active)
same,GI50,HT-29,> 100 µM (inactive)
same,GI50,NCI-H460,> 100 µM (inactive)
same,GI50,NCI-H226,> 100 µM (inactive)
same,GI50,U-251,> 100 µM (inactive)
same,GI50,A498,45.9 µM (inactive)
same,GI50,UACC-62,> 100 µM (inactive)
same,GI50,LOX IMVI,> 100 µM (inactive)
same,GI50,SF-268,> 100 µM (inactive)
same,GI50,UO-31,> 100 µM (inactive)
same,GI50,IGROV-1,> 100 µM (inactive)
same,GI50,SF-295,> 100 µM (inactive)
same,GI50,HOP-18,34.8 µM (inactive)
same,GI50,DMS-114,> 100 µM (inactive)
same,GI50,SF-539,> 100 µM (inactive)
same,GI50,HL-60,> 100 µM (inactive)
same,GI50,K562,> 100 µM (inactive)
same,GI50,XF498,> 100 µM (inactive)
same,GI50,TK-10,> 100 µM (inactive)
same,GI50,Malme-3M,> 100 µM (inactive)
same,GI50,SNB-78,> 100 µM (inactive)
same,GI50,SK-OV-3,> 100 µM (inactive)
same,GI50,KM12,> 100 µM (inactive)
same,GI50,CCRF-CEM,> 100 µM (inactive)
same,GI50,SN12C,> 100 µM (inactive)
same,GI50,OVCAR-3,> 100 µM (inactive)
same,GI50,NCI-H23,> 100 µM (inactive)
same,GI50,HCT-116,> 100 µM (inactive)
same,GI50,DMS-273,> 100 µM (inactive)
same,GI50,MOLT-4,> 100 µM (inactive)
same,GI50,ACHN,> 100 µM (inactive)
same,GI50,HCC 2998,> 100 µM (inactive)
same,GI50,SK-MEL-28,> 100 µM (inactive)
same,GI50,SK-MEL-5,> 100 µM (inactive)
same,GI50,SK-MEL-2,> 100 µM (inactive)
same,GI50,M14,> 100 µM (inactive)
same,GI50,SNB-19,> 100 µM (inactive)
same,GI50,NCI-H522,> 100 µM (inactive)
same,GI50,LXFL 529,> 100 µM (inactive)
same,GI50,HCT-15,> 100 µM
same,GI50,DLD-1,> 100 µM (inactive)
CCOC(=O)CN1C(=O)c2cccc3cc([N+](=O)[O-])cc(c23)C1=O,GI50,A549,13.1 µM (inactive)
same,GI50,UACC-257,2.51 µM (inactive)
same,GI50,OVCAR-8,1.78 µM (inactive)
same,GI50,RXF 393,1.84 µM (inactive)
same,GI50,HT-29,12.1 µM (inactive)
same,GI50,OVCAR-5,15.5 µM (inactive)
same,GI50,NCI-H460,4.89 µM (inactive)
same,GI50,786-0,13.4 µM (inactive)
same,GI50,KM-20L2,13.3 µM (inactive)
same,GI50,NCI-H226,10.7 µM (inactive)
same,GI50,U-251,7.55 µM (inactive)
same,GI50,OVCAR-4,1.85 µM (inactive)
same,GI50,A498,16.8 µM (inactive)
same,GI50,UACC-62,2.4 µM (inactive)
same,GI50,LOX IMVI,1.43 µM (inactive)
same,GI50,SF-268,3.37 µM (inactive)
same,GI50,UO-31,14 µM (inactive)
same,GI50,SNB-75,10.4 µM (inactive)
same,GI50,HOP-62,18.2 µM (inactive)
same,GI50,IGROV-1,3.97 µM (inactive)
same,GI50,HOP-18,19.7 µM (inactive)
same,GI50,DMS-114,2.28 µM (inactive)
same,GI50,SF-539,3.57 µM (inactive)
same,GI50,HL-60,0.637 µM (active)
same,GI50,K562,0.459 µM (active)
same,GI50,XF498,2.03 µM (inactive)
same,GI50,TK-10,17 µM (inactive)
same,GI50,Malme-3M,2.45 µM (inactive)
same,GI50,SNB-78,5.82 µM (inactive)
same,GI50,SK-OV-3,26.2 µM (inactive)
same,GI50,KM12,2.52 µM (inactive)
same,GI50,SR,0.0525 µM (active)
same,GI50,CCRF-CEM,0.287 µM (active)
same,GI50,SN12C,4.93 µM (inactive)
same,GI50,OVCAR-3,4.7 µM (inactive)
same,GI50,NCI-H23,2.04 µM (inactive)
same,GI50,HCT-116,1.63 µM (inactive)
same,GI50,SW-620,1.59 µM (inactive)
same,GI50,MOLT-4,0.373 µM (active)
same,GI50,ACHN,10.1 µM (inactive)
same,GI50,HCC 2998,4.23 µM (inactive)
same,GI50,RPMI-8226,1.81 µM (inactive)
same,GI50,SK-MEL-28,2.85 µM (inactive)
same,GI50,EKVX,15.2 µM (inactive)
same,GI50,SK-MEL-5,12.4 µM (inactive)
same,GI50,SK-MEL-2,1.17 µM (inactive)
same,GI50,M14,3.35 µM (inactive)
same,GI50,SNB-19,18.2 µM (inactive)
same,GI50,LXFL 529,1.71 µM (inactive)
same,GI50,HCT-15,1.65 µM
same,GI50,DLD-1,2.21 µM (inactive)
same,GI50,HOP-92,2.19 µM (inactive)
